In ChEMBL document CHEMBL4038285, “Synthesis, molecular docking, antimycobacterial and antimicrobial evaluation of new pyrrolo[3,2-c]pyridine Mannich bases” (Eur J Med Chem, 2017):
Values after ≈ are worked out from the molar mass of the structure shown. Active and inactive are the calls of the source. The rule behind the calls is not given here.

Legend:
Bacillus flexus [1] = test: Antibacterial activity against Bacillus flexus MTCC 2909 assessed as diameter of inhibition zone measured after 20 hrs by agar well diffusion method; type: functional, Priestia flexa
Pseudomonas aeruginosa = test: Antibacterial activity against Pseudomonas aeruginosa MTCC 4727 assessed as diameter of inhibition zone measured after 20 hrs by agar well diffusion method; type: functional
[2] = tested on: Mycobacterium tuberculosis; test: Antimycobacterial activity against Mycobacterium tuberculosis H37Rv ATCC 27294 after 7 days by microplate alamar blue assay; type: functional; details: H37Rv ATCC 27294, 168 h
Scopulariopsis sp = test: Antifungal activity against Scopulariopsis sp. MTCC 3553 assessed as diameter of inhibition zone after 4 days by agar well diffusion method; type: functional
Staphylococcus aureus [3] = test: Antibacterial activity against Staphylococcus aureus NCIM 5345 assessed as diameter of inhibition zone measured after 20 hrs by agar well diffusion method; type: functional
Clostridium sporogenes [4] = test: Antibacterial activity against Clostridium sporogenes NICM 2559 after 24 hrs by broth microdilution method; type: functional; details: NICM 2559, 24 h
Pseudomonas sp. = test: Antibacterial activity against Pseudomonas sp. NCIM 2872 assessed as diameter of inhibition zone measured after 20 hrs by agar well diffusion method; type: functional
Streptococcus mutans [5] = test: Antibacterial activity against Streptococcus mutans MTCC 890 after 24 hrs by broth microdilution method; type: functional; details: MTCC 890, 24 h
[6] = Growth inhibition of human HEK293T cells at 50 ug/ml after 72 hrs by MTT assay relative to control; type: cell-based, HEK-293T; details: read-out: GI
Streptococcus mutans [7] = test: Antibacterial activity against Streptococcus mutans MTCC 890 assessed as diameter of inhibition zone measured after 20 hrs by agar well diffusion method; type: functional
[8] = Selectivity index, ratio of IC50 for human HEK293T cells to MIC for Mycobacterium tuberculosis H37Rv ATCC 27294; type: toxicity; details: read-out: Selectivity Index
Klebsiella pneumoniae = test: Antibacterial activity against Klebsiella pneumoniae PTCC 1053 assessed as diameter of inhibition zone measured after 20 hrs by agar well diffusion method; type: functional
Aspergillus terreus = test: Antifungal activity against Aspergillus terreus MTCC 1782 assessed as diameter of inhibition zone after 4 days by agar well diffusion method; type: functional
Clostridium sporogenes [9] = test: Antibacterial activity against Clostridium sporogenes NICM 2559 assessed as diameter of inhibition zone measured after 20 hrs by agar well diffusion method; type: functional
Escherichia coli = test: Antibacterial activity against Escherichia coli NCIM 2931 assessed as diameter of inhibition zone measured after 20 hrs by agar well diffusion method; type: functional
Staphylococcus aureus [10] = test: Antibacterial activity against Staphylococcus aureus NCIM 5345 after 24 hrs by broth microdilution method; type: functional; details: NCIM 5345, 24 h
Bacillus flexus [11] = test: Antibacterial activity against Bacillus flexus MTCC 2909 after 24 hrs by broth microdilution method; type: functional; details: Priestia flexa, MTCC 2909, 24 h
HEK-293T = test: Growth inhibition of human HEK293T cells after 72 hrs by MTT assay; type: cell-based

In the case of CN(CCc1ccccc1)Cc1c(CC2CCCCC2)[nH]c2ccnc(Cl)c12, the “diameter of the inhibition zone (DIZ)” value (Bacillus flexus [1]) was 32 mm, the “diameter of the inhibition zone (DIZ)” value (Pseudomonas aeruginosa) was “inactive” and the MIC [2] was 6.25 µg/mL (≈ 15.8 µM). The “diameter of the inhibition zone (DIZ)” value (Scopulariopsis sp) was “inactive”, the “diameter of the inhibition zone (DIZ)” value (Staphylococcus aureus [3]) was 32 mm and the MIC (Clostridium sporogenes [4]) was 9 µg/mL (≈ 22.7 µM). The “diameter of the inhibition zone (DIZ)” value (Pseudomonas sp.) was “inactive”, the MIC (Streptococcus mutans [5]) was 10 µg/mL (≈ 25.3 µM) and the inhibition at 72 h, 50 ug/ml [6] was 19.1%. For the same molecule, the “diameter of the inhibition zone (DIZ)” value (Streptococcus mutans [7]) was 32 mm, the selectivity ratio [8] was greater than 16 and the “diameter of the inhibition zone (DIZ)” value (Klebsiella pneumoniae) was “inactive”. The “diameter of the inhibition zone (DIZ)” value (Aspergillus terreus) was “inactive”, the “diameter of the inhibition zone (DIZ)” value (Clostridium sporogenes [9]) was 32 mm and the “diameter of the inhibition zone (DIZ)” value (Escherichia coli) was “inactive”. The MIC (Staphylococcus aureus [10]) was 10 µg/mL (≈ 25.3 µM), the MIC (Bacillus flexus [11]) was 8 µg/mL (≈ 20.2 µM) and the IC50 (HEK-293T) was greater than 50 µg/mL.

For Clc1nccc2[nH]c(CC3CCCCC3)c(CN3CCOCC3)c12, the “diameter of the inhibition zone (DIZ)” value (Bacillus flexus [1]) was 20 mm, the “diameter of the inhibition zone (DIZ)” value (Pseudomonas aeruginosa) was “inactive” and the MIC [2] was 25 µg/mL (≈ 71.9 µM). The “diameter of the inhibition zone (DIZ)” value (Scopulariopsis sp) was “inactive”, the “diameter of the inhibition zone (DIZ)” value (Staphylococcus aureus [3]) was 20 mm and the MIC (Clostridium sporogenes [4]) was 40 µg/mL (≈ 115 µM). For the same molecule, the “diameter of the inhibition zone (DIZ)” value (Pseudomonas sp.) was “inactive”, the MIC (Streptococcus mutans [5]) was 30 µg/mL (≈ 86.2 µM) and the inhibition at 72 h, 50 ug/ml [6] was 21.2%. For the same molecule, the “diameter of the inhibition zone (DIZ)” value (Streptococcus mutans [7]) was 20 mm, the selectivity ratio [8] was 1 to 2 and the “diameter of the inhibition zone (DIZ)” value (Klebsiella pneumoniae) was “inactive”. The “diameter of the inhibition zone (DIZ)” value (Aspergillus terreus) was “inactive”, the “diameter of the inhibition zone (DIZ)” value (Clostridium sporogenes [9]) was 20 mm and the “diameter of the inhibition zone (DIZ)” value (Escherichia coli) was “inactive”. For the same molecule, the MIC (Staphylococcus aureus [10]) was 35 µg/mL (≈ 101 µM), the MIC (Bacillus flexus [11]) was 40 µg/mL (≈ 115 µM) and the IC50 (HEK-293T) was greater than 50 µg/mL.

With Clc1nccc2[nH]c(-c3ccccc3)c(CN3CCOCC3)c12 the “diameter of the inhibition zone (DIZ)” value (Bacillus flexus [1]) was 10 mm, the “diameter of the inhibition zone (DIZ)” value (Pseudomonas aeruginosa) was “inactive” and the MIC [2] was greater than 25 µg/mL. The “diameter of the inhibition zone (DIZ)” value (Scopulariopsis sp) was “inactive”, the “diameter of the inhibition zone (DIZ)” value (Staphylococcus aureus [3]) was 10 mm and the MIC (Clostridium sporogenes [4]) was greater than 50 µg/mL. The “diameter of the inhibition zone (DIZ)” value (Pseudomonas sp.) was “inactive”, the MIC (Streptococcus mutans [5]) was greater than 50 µg/mL and the “diameter of the inhibition zone (DIZ)” value (Streptococcus mutans [7]) was 10 mm. For the same molecule, the “diameter of the inhibition zone (DIZ)” value (Klebsiella pneumoniae) was “inactive”, the “diameter of the inhibition zone (DIZ)” value (Aspergillus terreus) was “inactive” and the “diameter of the inhibition zone (DIZ)” value (Clostridium sporogenes [9]) was 10 mm. The “diameter of the inhibition zone (DIZ)” value (Escherichia coli) was “inactive”, the MIC (Staphylococcus aureus [10]) was greater than 50 µg/mL and the MIC (Bacillus flexus [11]) was greater than 50 µg/mL.

In the case of OCCN1CCN(Cc2c(-c3ccccc3)[nH]c3ccnc(Cl)c23)CC1, the “diameter of the inhibition zone (DIZ)” value (Bacillus flexus [1]) was 10 mm, the “diameter of the inhibition zone (DIZ)” value (Pseudomonas aeruginosa) was “inactive” and the MIC [2] was greater than 25 µg/mL. The “diameter of the inhibition zone (DIZ)” value (Scopulariopsis sp) was “inactive”, the “diameter of the inhibition zone (DIZ)” value (Staphylococcus aureus [3]) was 10 mm and the MIC (Clostridium sporogenes [4]) was greater than 50 µg/mL. For the same molecule, the “diameter of the inhibition zone (DIZ)” value (Pseudomonas sp.) was “inactive”, the MIC (Streptococcus mutans [5]) was greater than 50 µg/mL and the “diameter of the inhibition zone (DIZ)” value (Streptococcus mutans [7]) was 10 mm. The “diameter of the inhibition zone (DIZ)” value (Klebsiella pneumoniae) was “inactive”, the “diameter of the inhibition zone (DIZ)” value (Aspergillus terreus) was “inactive” and the “diameter of the inhibition zone (DIZ)” value (Clostridium sporogenes [9]) was 10 mm. The “diameter of the inhibition zone (DIZ)” value (Escherichia coli) was “inactive”, the MIC (Staphylococcus aureus [10]) was greater than 50 µg/mL and the MIC (Bacillus flexus [11]) was greater than 50 µg/mL.

In the case of CN[C@@H]1[C@H](O[C@H]2[C@H](O[C@H]3[C@H](O)[C@@H](O)[C@H](N=C(N)N)[C@@H](O)[C@@H]3N=C(N)N)O[C@@H](C)[C@]2(O)C=O)O[C@@H](CO)[C@H](O)[C@H]1O [STREPTOMYCIN], the “diameter of the inhibition zone (DIZ)” value (Bacillus flexus [1]) was 32 mm, the “diameter of the inhibition zone (DIZ)” value (Pseudomonas aeruginosa) was 32 mm and the “diameter of the inhibition zone (DIZ)” value (Scopulariopsis sp) was “inactive”. The “diameter of the inhibition zone (DIZ)” value (Staphylococcus aureus [3]) was 32 mm, the MIC (Clostridium sporogenes [4]) was 1 µg/mL (≈ 1.72 µM) and the “diameter of the inhibition zone (DIZ)” value (Pseudomonas sp.) was 32 mm. The MIC (Streptococcus mutans [5]) was 0.5 µg/mL (≈ 0.86 µM), the “diameter of the inhibition zone (DIZ)” value (Streptococcus mutans [7]) was 32 mm and the “diameter of the inhibition zone (DIZ)” value (Klebsiella pneumoniae) was 32 mm. The “diameter of the inhibition zone (DIZ)” value (Aspergillus terreus) was “inactive”, the “diameter of the inhibition zone (DIZ)” value (Clostridium sporogenes [9]) was 32 mm and the “diameter of the inhibition zone (DIZ)” value (Escherichia coli) was 32 mm. The MIC (Staphylococcus aureus [10]) was 2 µg/mL (≈ 3.44 µM) and the MIC (Bacillus flexus [11]) was 1.5 µg/mL (≈ 2.58 µM).

For NYSTATIN, the “diameter of the inhibition zone (DIZ)” value (Bacillus flexus [1]; Priestia flexa) was “inactive”, the “diameter of the inhibition zone (DIZ)” value (Pseudomonas aeruginosa) was “inactive” and the inhibition zone (IZ) (Scopulariopsis sp) was 32 mm. The “diameter of the inhibition zone (DIZ)” value (Staphylococcus aureus [3]) was “inactive”, the “diameter of the inhibition zone (DIZ)” value (Pseudomonas sp.) was “inactive” and the “diameter of the inhibition zone (DIZ)” value (Streptococcus mutans [7]) was “inactive”. For the same molecule, the “diameter of the inhibition zone (DIZ)” value (Klebsiella pneumoniae) was “inactive”, the inhibition zone (IZ) (Aspergillus terreus) was 32 mm and the “diameter of the inhibition zone (DIZ)” value (Clostridium sporogenes [9]) was “inactive”. For the same molecule, the “diameter of the inhibition zone (DIZ)” value (Escherichia coli) was “inactive”.

For CO[C@H]1/C=C/O[C@@]2(C)Oc3c(C)c(O)c4c(O)c(c(/C=N/N5CCN(C)CC5)c(O)c4c3C2=O)NC(=O)/C(C)=C\C=C\[C@H](C)[C@H](O)[C@@H](C)[C@@H](O)[C@@H](C)[C@H](OC(C)=O)[C@@H]1C [RIFAMPIN], the MIC [2] was 0.02 µg/mL (≈ 0.0243 µM).

CC[C@@H](CO)NCCN[C@@H](CC)CO [ETHAMBUTOL] gave an MIC [2] of 3.12 µg/mL (≈ 15.3 µM).

NNC(=O)c1ccncc1 [ISONIAZID] showed an MIC [2] of 0.36 µg/mL (≈ 2.63 µM).
